Test results as given in publication PMC9501810, “Bitter Peptides YFYPEL, [sequence], and [sequence], Released during Gastric Digestion of Casein, Stimulate Mechanisms of Gastric Acid Secretion via Bitter Taste Receptors TAS2R16 and TAS2R38” (Journal of Agricultural and Food Chemistry, 2022).

Experiments:
Format in all cases: cell-based, human
TAS1R3 = assay: RT-qPCR gene expression of TAS1R3 in HGT-1 cells; conditions: 15/30/60/120 min, VAPFPEVF 17.5 µM, YQEPVLGPVRGPFPIIV 0.4 µM, n = 3
Procedure: (§1) For mRNA expression analysis, 800,000 cells were seeded in a T25 cell culture flask (25 cm^2) 1 day before the experiment. After incubation with 17.5 μM […], 0.03 μM YFYPEL, or 0.4 μM […] for 15, 30, 60, and 120 min, RNA was isolated using the peqGOLD RNA Kit (VWR Peqlab, USA) following the manufacturer’s protocol. Determination of RNA concentration (A260/A280 between 2.03 and 2.09) was performed on a NanoDrop One^c (Thermo Fisher Scientific Inc., USA). RNA integrity number (RIN 9.9–10.0, version 2.6, assay class Eukaryote Total RNA Nano) was analyzed using a 2100 Bioanalyzer (Agilent Technologies, USA). Removal of gDNA and synthesis of cDNA were performed using the iScript gDNA Clear cDNA Synthesis Kit (BioRad, Feldkirchen, Germany) following the manufacturer’s protocol. Real-time-qPCR (RT-qPCR) was performed with 50 ng cDNA amplified with SsoAdvanced Universal SYBR Green Supermix (Bio-Rad Laboratories, Inc., USA). The sequences of the forward and reverse primers of the 25 TAS2Rs were taken from Liszt et al.([13]) (Supporting Information Table-SI 3). Verified primers for the TAS1Rs (TAS1R1: qHsaCID0013443; TAS1R2: qHsaCID0016106; TAS1R3: qHsaCED0002321) and for MAPK1 (qHsaCEP0050000) were obtained from Bio-Rad Laboratories. PPIA[37] and GAPDH[38] were used as reference genes. The effects of the peptides on gene expression were analyzed in comparison to untreated control cells.

TAS2R60 = assay: RT-qPCR gene expression of TAS2R60 in HGT-1 cells; conditions: incubation 15/30/60/120 min, VAPFPEVF 17.5 µM, YFYPEL 0.03 µM, YQEPVLGPVRGPFPIIV 0.4 µM, expression not detectable with or without treatment
Procedure: as §1

TAS2R5 = assay: RT-qPCR gene expression of TAS2R5 in HGT-1 cells; conditions: VAPFPEVF 17.5 µM, YFYPEL 0.03 µM, YQEPVLGPVRGPFPIIV 0.4 µM, normalized to PPIA and GAPDH and untreated cells, mean, n = 3–5
Procedure: as §1

TAS2R38 = assay: Proton secretion assay in TAS2R38 knock-down vs mock-transfected HGT-1 cells; conditions: TAS2R38kd vs mock-transfected HGT-1 cells, VAPFPEVF 17.5 µM, YFYPEL 0.03 µM, YQEPVLGPVRGPFPIIV 0.4 µM, 10 min, mean ± SEM
Procedure: The measurement of proton secretion from HGT-1 cells represents a well-established model for the identification of bitter compounds. By affecting extraoral bitter taste receptors with bitter compounds, a modulatory effect on proton secretion can be measured. For this purpose, cells were washed with KRHB and incubated with 3 μM of the intracellular pH indicator 1,5 carboxy-seminaphto-rhodafluor acetoxymethyl ester (SNARF-1-AM) under standard conditions. After 30 min, the cells were washed again with KRHB and then incubated with casein (0.01–10 μM equimolar related to the relevant forms αS1- and β-casein), hydrolysate (0.01–10 μM), or the peptides (0.01–200 μM). […] All substances were dissolved and diluted in KRHB. 1 mM histamine was used as a positive control. Measurements were performed using FlexStation 3 (Molecular Devices, USA). The excitation wavelength was 488 nm, and the emission wavelengths were 580 and 640 nm. For calibration (pH range 7.0–8.0), the intracellular and extracellular pH was adjusted with 2 μM nigericin in potassium buffer (20 mM NaCl, 110 mM KCl, 1 mM CaCl2, 1 mM MgSO4, 18 mM D-glucose, and 20 mM HEPES). The intracellular proton index (IPX) was calculated as the log2 value of the 580/640 ratio and compared with cells without treatment. Negative values represent increased secretion of protons and therefore stimulation of mechanisms regulating gastric acid secretion in HGT-1 cells. In contrast, positive values represent an inhibition of secretion compared to the untreated control.
Expression of TAS2R16 and TAS2R38 was reduced by treatment of HGT-1 cells with siRNA. 100,000 cells per well were seeded 1 day before the experiment into a 24-well plate. All reagents and siRNA were purchased from Thermo Fisher Scientific, USA (cytotoxicity was excluded by MTT). Transfection was performed with Lipofectamine RNAiMAX in Opti-Medium according to the manufacturer’s protocol. 1–50 nM of different siRNA sequences (HSS121396 and HSS181763 for TAS2R16 and HSS108754 and HSS108756 for TAS2R38) and three different incubation times (24, 48, and 72 h) were tested. Mock control experiments were performed analogously with 1 or 10 nM Stealth RNAi siRNA negative control. To verify the functionality of the transfection process, verified 10 nM siRNA targeting MAPK1 (VHS40312) was used (positive control). The transfection rate was checked by qPCR as described in section 2.11. For the proton secretion assays, 20,000 cells per well were seeded 1 day before transfection into a black 96-well plate. After 72 h of transfection, proton secretion activities of TAS2R16 knock-down or TAS2R38 knock-down HGT-1 were compared with the mock transfected cells by means of ΔIPX.

TAS2R31 = assay: RT-qPCR gene expression of TAS2R31 in HGT-1 cells; conditions: VAPFPEVF 17.5 µM, YFYPEL 0.03 µM, YQEPVLGPVRGPFPIIV 0.4 µM, normalized to PPIA and GAPDH and untreated cells, mean, n = 3–5
Procedure: as §1

TAS2R13 = assay: RT-qPCR gene expression of TAS2R13 in HGT-1 cells; conditions: VAPFPEVF 17.5 µM, YFYPEL 0.03 µM, YQEPVLGPVRGPFPIIV 0.4 µM, normalized to PPIA and GAPDH and untreated cells, mean, n = 3–5
Procedure: as §1

TAS2R43 = assay: RT-qPCR gene expression of TAS2R43 in HGT-1 cells; conditions: VAPFPEVF 17.5 µM, YFYPEL 0.03 µM, YQEPVLGPVRGPFPIIV 0.4 µM, normalized to PPIA and GAPDH and untreated cells, mean, n = 3–5
Procedure: as §1

TAS1R1 = assay: RT-qPCR gene expression of TAS1R1 in HGT-1 cells; conditions: 15/30/60/120 min, VAPFPEVF 17.5 µM, YQEPVLGPVRGPFPIIV 0.4 µM, n = 3
Procedure: as §1

TAS2R50 = assay: RT-qPCR gene expression of TAS2R50 in HGT-1 cells; conditions: VAPFPEVF 17.5 µM, YFYPEL 0.03 µM, YQEPVLGPVRGPFPIIV 0.4 µM, normalized to PPIA and GAPDH and untreated cells, mean, n = 3–5
Procedure: as §1

TAS2R40 = assay: RT-qPCR gene expression of TAS2R40 in HGT-1 cells; conditions: VAPFPEVF 17.5 µM, YFYPEL 0.03 µM, YQEPVLGPVRGPFPIIV 0.4 µM, normalized to PPIA and GAPDH and untreated cells, mean, n = 3–5
Procedure: as §1

YQEPVLGPVRGPFPIIV [bitter casein peptide βA1/A2-CN193–209]
change in expression of TAS1R3 (TAS1R3): no significant effect | change in gene expression of TAS2R60 (TAS2R60): not detected | change in gene expression of TAS2R5 (TAS2R5; incubation 15 min): 1.25 fold change | change in gene expression of TAS2R5 (TAS2R5; incubation 30 min): 1.45 fold change | change in gene expression of TAS2R5 (TAS2R5; incubation 60 min): 1.39 fold change | change in gene expression of TAS2R5 (TAS2R5; incubation 120 min): 1.22 fold change | reduction of the peptide-induced stimulation of proton secretion in TAS2R38kd cells (TAS2R38; 72 h after 1 nM siRNA): 45.2 ± 6.7% | change of peptide-induced proton secretion, TAS2R38kd (in Figure 5E–G) (TAS2R38; negative = reduction): -45.2 ±6.7% | change in gene expression of TAS2R31 (TAS2R31; incubation 15 min): 0.86 fold change | change in gene expression of TAS2R31 (TAS2R31; incubation 30 min): 1.43 fold change | change in gene expression of TAS2R31 (TAS2R31; incubation 60 min): 1.33 fold change | change in gene expression of TAS2R31 (TAS2R31; incubation 120 min): 0.99 fold change | change in gene expression of TAS2R13 (TAS2R13; incubation 15 min): 0.70 fold change | change in gene expression of TAS2R13 (TAS2R13; incubation 30 min): 1.65 fold change | change in gene expression of TAS2R13 (TAS2R13; incubation 60 min): 1.16 fold change | change in gene expression of TAS2R13 (TAS2R13; incubation 120 min): 1.31 fold change | change in gene expression of TAS2R43 (TAS2R43; incubation 15 min): 0.69 fold change | change in gene expression of TAS2R43 (TAS2R43; incubation 30 min): 1.44 fold change | change in gene expression of TAS2R43 (TAS2R43; incubation 60 min): 1.15 fold change | change in gene expression of TAS2R43 (TAS2R43; incubation 120 min): 0.88 fold change | change in expression of TAS1R1 (TAS1R1): no significant effect | change in gene expression of TAS2R50 (TAS2R50; incubation 15 min): 0.67 fold change | change in gene expression of TAS2R50 (TAS2R50; incubation 30 min): 1.66 fold change | change in gene expression of TAS2R50 (TAS2R50; incubation 60 min): 1.21 fold change | change in gene expression of TAS2R50 (TAS2R50; incubation 120 min): 1.07 fold change | change in gene expression of TAS2R40 (TAS2R40; incubation 15 min): 0.92 fold change | change in gene expression of TAS2R40 (TAS2R40; incubation 30 min): 1.78 fold change | change in gene expression of TAS2R40 (TAS2R40; incubation 60 min): 0.96 fold change | change in gene expression of TAS2R40 (TAS2R40; incubation 120 min): 0.86 fold change
